Data on 4 molecules can be found in patent US20050148073A1, “Induction of hepatocyte proliferation in vitro by inhibition of cell cycle inhibitors” (priority 2002, published 2005).

For data set [1], the system named is primary rat hepatocytes. Nature of the data set: Hepatocyte morphology / cell spreading (scanning electron micrographs). Particulars: 24 hours. In kind it is cell-based. An excerpt: PKA inhibition also had surprising effects on cell morphology. It has been proposed that malleable substrates such as collagen gel are unable to promote cell spreading because it lacks sufficient mechanical strength to resist contractile forces applied by the cell to its adhesion sites.

Data set [2] relates to protein kinase inhibitory peptide, PKI.
Data set [3] has as its system primary rat hepatocytes. Nature of the data set: DNA synthesis, [3H]thymidine incorporation in hepatocytes on collagen film or gel. The class given is cell-based. As to the method: (§1) FIG. 2. Effects of PKA inhibition on morphology and cell cycle progression on collagen gel. (A) PKA activity was assessed in hepatocytes cultured on gel or film. In vitro kinase assay was performed; DPM=total ^32P-incorporation, minus counts from sample without substrate. […] [^3H]Thymidine incorporation was assessed from 48-96 hr. (C) Phosphorylation of p42/44 ERKs was determined in hepatocytes cultured on collagen gel for 50 hr by Western blot using a phospho-specific p42/44 antibody (NEB). […] EGF receptor (EGFr) was immunoprecipitated, followed by Western blot analysis of phospho-tyrosine (P-Tyr) or total EGFr.
Once it was confirmed that PKA activity was higher in cells cultured on gel, PKA activity was modified to assess its role in cell cycle progression.
DNA Synthesis: DNA synthesis will be measured using [^3H]-thymidine incorporation in substrate-coated 96-well plates, as previously described (Hansen 1999). DPMs will be normalized to cell number assessed in parallel plates using the CyQuant Assay (Molecular Probes).
Hepatocyte Culture: Cells are obtained by collagenase perfusion of adult Lewis rat liver (Aiken 1990), followed by purification through a Percoll gradient (Sigma, St. Louis, Mo.). Hepatocytes will be plated (12,000 cells/cm^2) in serum-free William's medium E with defined additives including EGF (10 ng/ml, Collaborative Research, Bedford, Mass.) and insulin (20 mU/ml, Sigma) (Hansen 1994).

In data set [4] the test system is hepatocytes. As to the kind of experiment: Cell counts after pulsed PKA inhibition, Example 6 (hemocytometer, Coulter counter). The class given is cell-based, rat. As to the method: Coating: 60 mm plates were coated with film or 5× gel, as described above, with 4 replicates per condition. […] Culture: The cells were cultured as described above, changing media in all plates at 72 hrs, and again at 96 hrs (day 4). […] Harvest: Gel—media was removed from plates. Five mL collagenase (approx. 1 mg/ml) in PBS was added to plates and incubated for 20 minutes at 37° C. Three mL trypsin-EDTA was added directly to collagenase solution and incubated another 15 minutes at 37° C. Media was removed with a pipette and plate was washed several times with the media, before the media was collected into a 15 mL tube. Tubes were centrifuged at 1000 rpm for 10 minutes at 4° C. Supernatant was removed and pellets from each of the four replicates were resuspended in 1 mL fresh media. Tube was weighed for end volume and equalized to 1 ml later. Film—Media was removed from plates. Trypsin-EDTA was added to dishes (3 ml/dish) and dishes were incubated at 37° C. for 15 minutes. Procedure was repeated. Samples were snap frozen in ethanol at −70° C. before thawing and counting. Counting: Hemocytometer—100 μL sample was added to 900 μL trypan blue in PBS […]. Cells were counted. Repeated procedure seven times for eight total counts per sample. Coulter Counter—Added 250 μL sample to 20 mL PBS in small Coulter vessel. Counted with predetermined pre-sets, collecting 1 mL of 20 mL sample and recording result. Repeated procedure seven times for eight total counts per sample. It should be noted that the inventors also determined that a pulse of PKA inhibitor is preferable to a constant exposure to PKA. If the PKA inhibitor is left on for the entire culture period, there is no enhanced cell number, presumably due to the requirement of PKA in later stages of the cell cycle. Thus, the methodology differs slightly from our initial report in which we simply stated the inhibitor is added to the culture. In the present experiments, the inventors exposed the cells to the inhibitor on for the first 72 hours, removed it for the next 24 hours, and then added it back again.

In data set [5] the test system is hepatocytes. Nature of the data set: Dot blot of albumin secretion, 72 hour media samples. The class given is cell-based, rat. The method, then:
FIG. 6. Dot blot of albumin secretion—72 hour media samples.
The observed enhanced cell number was accompanied by NO change in albumin secretion, which is a standard measure of differentiated function. […] It also compares it to a thin film of type I collagen on which hepatocytes may proliferate but also lose differentiated function. Inhibition of PKA has little effect on DNA synthesis, cell counts, or albumin secretion in hepatocytes cultured on film.

The next data set has as its system p42/44 ERKs. As to the kind of experiment: Phosphorylation of p42/44 ERKs by Western blot. In kind it is cell-based, rat. Conditions: hepatocytes on collagen gel for 50 hr, with H89. The method, then: as §1
To determine if ERK activation occurs on both collagen substrates (film and gel), phosphorylation of ERKs was measured using Western blot analysis and antibodies against the phosphorylated form of ERK 1/2 (New England Biolabs). […] Once plated onto collagen film, ERK phosphorylation persisted and increased slightly over the first 2 hours in culture, then gradually diminished out to 24 hours. A second peak of phosphorylation was observed by 48 hours, just prior to entry into S phase. Both peaks of phosphorylation correlated with increased ERK kinase activity as determined by in vitro kinase assays. In contrast, the initial phosphorylation subsides more rapidly in cells on collagen gel and the second peak of ERK phosphorylation was absent. […]

Data set [6] has as its system primary rat hepatocytes. As to the kind of experiment: Urea production in hepatocytes on collagen gel. The class given is cell-based. Particulars: with PKA inhibition (FIG. 4C: with or without H89). The method, then: (§2) FIG. 4. Effects of PKA inhibition on hepatocyte proliferation and differentiation. […] Medium was replaced at 96 hr and collected for analysis at 120 hr. Albumin secretion was determined by ELISA.
(§3) Albumin is a protein synthesized and secreted by hepatocytes and this assay is routinely used as a marker of differentiated function. […] Urea production is also maintained on collagen gel in the presence of PKA inhibition (FIG. 4C).

Data set [7] has as its system primary rat hepatocytes. Nature of the data set: Albumin secretion by ELISA (differentiated function). In kind it is cell-based. Particulars: collagen gel; text: after 48 hours in culture; H89 3 μM. As to the method: FIG. 4. Effects of PKA inhibition on hepatocyte proliferation and differentiation. […] Albumin secretion was determined by ELISA.
as §3

In data set [8] the test system is primary rat hepatocytes. As to the kind of experiment: Cell counting 96 hr after plating on collagen gel (hemocytometer). The class given is cell-based. Conditions: H89 3 μM. As to the method: as §2
While growth on collagen films was also high, hepatocytes quickly become de-differentiated on collagen films.
Proliferation: Hepatocytes cultured on 35 mm dishes will be removed from plates using a combination of trypsin, collagenase, and DNAse at various times after plating. Cells are counted using a Coulter counter and hemocytometer. A cell count at 24 hour is also determined to assess the initial number of viable, attached cells. Plates are run in triplicate.

With `Nc1ncnc2c1nc(Br)n2[C@@H]1O[C@@H]2COP(=O)(O)O[C@H]2[C@H]1O` [8-Br-cAMP], in the data set with primary rat hepatocytes [1] (collagen film), the “cell spreading on collagen film” value is “significantly inhibits cell spreading”.
As for protein kinase A (PKA), in data set [2], the “[^32P] incorporation in the in vitro PKA kinase assay” value is “the protein kinase inhibitory peptide, PKI, specifically inhibits [^32P] incorporation”.
Consider `N#CC(=C(/N)Sc1ccccc1N)/C(C#N)=C(\N)Sc1ccccc1N` [U0126], for which the “DNA synthesis, MEK1 inhibition during early G1” value in the data set on primary rat hepatocytes [3] (inhibitor applied during early G1) was “does not”. Further, in the data set on primary rat hepatocytes [3] (inhibitor applied during late G1), the “DNA synthesis, MEK1 inhibition during late G1” value is recorded as “inhibits DNA synthesis”.
Consider `O=S(=O)(NCCNC/C=C/c1ccc(Br)cc1)c1cccc2cnccc12` [H89, N-[2-((p-bromocinnamyl)amino)ethyl]-5-isoquinolinesulfonamide], for which the “cell counts in hepatocytes cultured on film” value in the data set on hepatocytes [4] (collagen film) is reported as “little effect”. The “higher cell number with PKA inhibition” value in the data set with hepatocytes [4] (type I collagen gel, eight days in culture, 3.3 μM H89 pulsed) is 15-20%. The “average increase in cell number, five experiments” value in the data set on hepatocytes [4] (type I collagen gel, eight days, 3.3 μM H89 pulsed, p-value=0.0004) was 16%±3.3%. In addition, the “cell number at four days” value with hepatocytes [4] (type I collagen gel, representative experiment (FIG. 5A)) is “no change in cell number”. Moreover, the “albumin secretion in hepatocytes cultured on film” value in the data set with hepatocytes [5] (collagen film) was “little effect”. The “albumin secretion (dot blot, not quantitated)” value in the data set with hepatocytes [5] (collagen gel cultures with or without H89, 72 hours) is “NO change”. The ERK phosphorylation result with p42/44 ERKs is “significantly enhanced”. Moreover, the “cell spreading on collagen gel” value with primary rat hepatocytes [1] (collagen gel) is listed as “significant spreading”. The urea production entry with primary rat hepatocytes [6] is “maintained”. For the same molecule, the “DNA synthesis on collagen gel” value in the data set with primary rat hepatocytes [3] (H89 2 μM vs DMSO, collagen gel, [3H]thymidine incorporation 48-96 hr) is recorded as “significantly increased”. Besides, in the data set with primary rat hepatocytes [3] (H89 2 μM vs DMSO, film-plated cells, 48-96 hr), the “DNA synthesis on collagen film” value is “little effect”. Besides, the “DNA synthesis in hepatocytes cultured on film” value with primary rat hepatocytes [3] (collagen film, Example 6 discussion) is recorded as “little effect”. The “albumin secretion compared to DMSO controls” value in the data set with primary rat hepatocytes [7] is listed as “not reduced”. The “increase in cell number compared to DMSO controls” value in the data set on primary rat hepatocytes [8] worked out at 67%.
